Measurements: patent US4525360A, “Anti-psychotic phenylindene derivatives and acid addition salts thereof” (Kefalas A/S, priority 1982, dated 1985)
pIC50: −log10 of the molar value. Counter-ions that a name gives are not always drawn. Like-named read-outs stand apart in the source and are kept apart here.

Tests used:
methylphenidate = assay: Methylphenidate antagonism, mice i.p.; type: in vivo; settings: Mus musculus, ip
Method: Methylphenidate antagonism (ED50 μmol/kg i.p.)
Perspex observation cages without bottom and lid, consisting of 5 sections each measuring 12×25×30 cm.
Two hours after injection of test substance, methylphenidate, 60 mg/kg, is injected s.c. After administration of methylphenidate the mice are placed in the observation cages, 2 in each cage, where they remain for exactly 1 hour. The cages are placed on corrugated paper, the corrugations facing upwards. It is examined whether the mice have been biting the corrugated paper or not.
The result is stated in fractions: 0/3, 1/3, 2/3 and 3/3 where 0, 1, 2 and 3 are the number of pairs which have not been biting on receipt of the dose in question.

[1] = Catalepsy wire mesh, rat, max.; type: in vivo, rats; settings: po, read-out: Catalep. ED50 (po)
Method: Catalepsy wire mesh, rat, max. (ED50 μmol/kg p.o.)
A vertical wire netting (50 cm×49 cm). The meshes (openings) of the netting are square (1 cm×1 cm). The wire diameter is 2 mm.
The animals are labeled and used in groups of five. The test substance is administered orally (p.o.) at 4 dose levels selected from a fixed dose scale.
The animals are placed in the middle of the vertical wire netting 60, 120, 180, 240, 300 and 360 minutes after administration of the test compound. The animals are considered cataleptic when they remain immobile during a period of 15 seconds. This cataleptic reaction is designated +.
If the rats are "atonic" and passively slide down the wire mesh they are considered not cataleptic. If the animals climb up and down the wire mesh they are nor cataleptic. In both situations the designation - is used.

5-HT, rat fundus strip = assay: 5-HT antagonism, rat fundus strip; settings: read-out: 5HT rat-fundus-strip IC50
Method: 5-HT antagonism, rat fundus strip
5-hydroxytryptamine (5-HT).
Rats are killed by a blow on the head and exsanguinated. The stomach fundus is removed and carefully cleaned with Krebs solution at 30° C. The fundus is then stretched over a rounded end of a plastic rod about the thickness of a pencil, whereby the longitudinal direction of the muscle fibers is visible. The fundus is halved by carefully cutting in the central line and in the direction of these fibres. Along this incision two strips with a length of 15-25 mm and with width 1.5-2.5 mm are cut, one from each half of the fundus. The mucosa is then carefully removed. A thread is attached to each end of a strip. One thread is fixed to a pin in the bottom of the organ bath and the other thread is fixed to an isotonic transducer. The strip is kept under a tone of 1.5 to 2.0 g. […] Concentration response curves to 5-HT are obtained by adding 5-HT to the bath in increasing concentrations (0.1 ml of 10^-9 M resulting in 1.0×10^-11 M in the bath, 0.2 ml of 10^-9 M resulting in 3.0×10^-11 M, 0.1 ml of 10^-8 M resulting in about 1×10^-10 M, 0.2 ml of 10^-8 M resulting in about 3×10^-10 M--0.2 ml of 10^-4 resulting in about 3×10^-6 M in the bath). Each concentration of 5-HT is allowed to exert its maximal effect (1-10 min) before the next is added. When the maximal response is reached the tissue is carefully washed. The test substance is added to the bath for 10 min. before examining its effect on a new cumulative 5-HT concentration response curve. From the control concentration effect curve the Km for 5-HT is calculated.
The results are recorded as mean percentage inhibition.
Substrate concentration for 5-HT: 1.0×10^-9 M to 1.0×10^-8 M.
Michaelis-Menten constant for 5-HT is estimated each time.

[2] = read-out: MePh Antag. ED50 (ip)
[3] = Table 1, mice, i.p., 2 h before methylphenidate 60 mg/kg s.c., read-out: MePh Antag. ED50 (ip)
[4] = Table 1, rat, p.o., max. effect within 6 h
[5] = 10 min, Table 1, rat fundus strip in vitro, 10 min pre-exposure
[6] = Table 2, hydroxyindane intermediates, mice, i.p., read-out: MePh Antag. ED50

pIC50 (5-HT, rat fundus strip; [5]) | Compound | ED50 (methylphenidate; [3]) | ED50 [1, 4] | further results
 | O=C(CCCN1CCC(O)(c2ccc(Cl)cc2)CC1)c1ccc(F)cc1 [Haloperidol, reference compound] |  |  | ED50 (methylphenidate; [2]): 0.11 µmol/kg; ED50 ([1]; Rattus norvegicus, 6 h): 1 µmol/kg
6.48 | OCCN1CC=C(C2=CC(c3ccc(F)cc3)c3ccc(F)cc32)CC1 (stereo not drawn) [Lu 19-157, 6-Fluoro-3-(4'-fluorophenyl)-1-(1-hydroxyethyl-1,2,3,6-tetrahydropyrid-4-yl)-1-indene, hydrobromide] | 15.8 µmol/kg | 55.3 µmol/kg | 
 | OC1(C2CCNCC2)CC(c2ccc(F)cc2)c2ccc(F)cc21 (stereo not drawn) [Lu 19-139, 6-Fluoro-3-(4'-fluorophenyl)-1-hydroxy-1-(4-piperidyl)indane] |  |  | ED50 (methylphenidate; [6]): 15.6 µmol/kg
 | CN(C)CCCN1c2ccccc2Sc2ccc(Cl)cc21 [Chlorpromazine, reference compound] |  |  | ED50 ([1]; Rattus norvegicus, 6 h): 70 µmol/kg; pIC50 (5-HT, rat fundus strip; Rattus norvegicus, 10 min): < 5.30
 | CC(C)c1ccc2c(c1)C(C1CCN(CCO)CC1)=CC2c1ccc(F)cc1 (stereo not drawn) [Lu 20-109, 3-(4'-Fluorophenyl)-1-(1-hydroxyethyl-4-piperidyl)-6-(2-propyl)-1-indene, hydrochloride] | 1.1 µmol/kg |  | 
 | Cc1ccc2c(c1)C(O)(C1=CCN(C)CC1)CC2c1ccc(F)cc1 (stereo not drawn) [Lu 19-131, 3-(4'-Fluorophenyl)-1-hydroxy-6-methyl-1-(1-methyl-1,2,3,6-tetrahydropyrid-4-yl)indane] |  |  | ED50 (methylphenidate; [6]): 14.8 µmol/kg
 | Cc1ccc2c(c1)C(C1CCN(CCN3CCOC3=O)CC1)=CC2c1ccc(F)cc1 (stereo not drawn) [Lu 21-002, 3-(4'-Fluorophenyl)-6-methyl-1-(1-(2-oxazolidinon-3-ylethyl)-4-piperidyl)-1-indene, trifluoroacetate] | 1.7 µmol/kg |  | 
5.12 | CN1CCC(=C2C=C(c3ccc(F)cc3)c3ccc(F)cc32)CC1 [Lu 19-151, 6-Fluoro-3-(4'-fluorophenyl)-1-(1-methyl-4-piperidylidenyl)-2-indene, hydrochloride] | 32.5 µmol/kg | 32.9 µmol/kg | 
7.66 | Cc1ccc2c(c1)C(C1CCN(CCN3CCNC3=O)CC1)=CC2c1ccc(F)cc1 (stereo not drawn) [Lu 20-064, 3-(4'-Fluorophenyl)-1-(1-(2-imidazolidinon-1-ylethyl)-4-piperidyl)-6-methyl-1-indene, oxalate] | 0.86 µmol/kg | 6.7 µmol/kg | 
6.30 | COc1ccc2c(c1)C(C1=CCN(CCO)CC1)=CC2c1ccc(F)cc1 (stereo not drawn) [Lu 20-021, 3-(4'-Fluorophenyl)-1-(1-hydroxyethyl-1,2,3,6-tetrahydropyrid-4-yl)-6-methoxy-1-indene, hydrobromide] | 11.6 µmol/kg |  | 
 | O=C1NCCN1CCN1CCC(C2=CC(c3ccc(F)cc3)c3ccc(F)cc32)CC1 (stereo not drawn) [Lu 20-087, 6-Fluoro-3-(4'-fluorophenyl)-1-(1-(2-imidazolidinon-1-ylethyl)-4-piperidyl)-1-indene, oxalate] | 10.8 µmol/kg |  | 
6.55 | Cc1ccc2c(c1)C(=C1CCN(CCO)CC1)C=C2c1ccc(F)cc1 [Lu 20-044, 3-(4'-Fluorophenyl)-1-(1-hydroxyethyl-4-piperidylidenyl)-6-methyl-2-indene,hydrobromide] | 5.1 µmol/kg |  | 
7.38 | Cc1ccc2c(c1)C(C1CCN(C)CC1)=CC2c1ccc(F)cc1 (stereo not drawn) [Lu 20-048, 3-(4'-Fluorophenyl)-6-methyl-1-(1-methyl-4-piperidyl)-1-indene, hydrobromide] | 0.53 µmol/kg | 3.4 µmol/kg | 
7.07 | Cc1ccc2c(c1)C(C1=CCN(C)CC1)=CC2c1ccc(F)cc1 (stereo not drawn) [Lu 20-041, 3-(4'-Fluorophenyl)-6-methyl-1-(1-methyl-1,2,3,6-tetrahydropyrid-4-yl)-1-indene, hydrobromide] | 0.14 µmol/kg | 1.6 µmol/kg | 
7.55 | Cc1ccc2c(c1)C(C1=CCN(CCO)CC1)C=C2c1ccc(F)cc1 (stereo not drawn) [Lu 20-038, 3-(4'-Fluorophenyl)-1-(1-hydroxyethyl-1,2,3,6-tetrahydropyrid-4-yl)-6-methyl-2-indene, hydrobromide] | 0.89 µmol/kg | 3.8 µmol/kg | 
7.21 | Cc1ccc2c(c1)C(C1=CCN(C)CC1)C=C2c1ccc(F)cc1 (stereo not drawn) [Lu 20-040, 3-(4'-Fluorophenyl)-6-methyl-1-(1-methyl-1,2,3,6-tetrahydropyrid-4-yl)-2-indene, hydrobromide] | 0.7 µmol/kg | 5.5 µmol/kg | 
5.82 | O=C1NCCN1CCN1CCC(C2C=C(c3ccc(F)cc3)c3ccccc32)CC1 (stereo not drawn) [Lu 20-082, 3-(4'-Fluorophenyl)-1-(1-(2-imidazolidinon-1-ylethyl)-4-piperidyl)-2-indene] | 70.9 µmol/kg |  | 
5.30 | CC(C)c1ccc2c(c1)C(C1=CCN(C)CC1)=CC2c1ccc(F)cc1 (stereo not drawn) [Lu 20-099, 3-(4'-Fluorophenyl)-1-(1-methyl-1,2,3,6-tetrahydropyrid-4-yl)-6-(2-propyl)-1-indene, hydrobromide] | 5.6 µmol/kg |  | 
5.72 | Cc1ccc2c(c1)C(C1CCN(CCO)CC1)C=C2c1ccc(F)cc1 (stereo not drawn) [Lu 20-039, 3-(4'-Fluorophenyl)-1-(1-hydroxyethyl-4-piperidyl)-6-methyl-2-indene, hydrobromide] | 93 µmol/kg | > 93 µmol/kg | 
6.80 | COc1ccc2c(c1)C(C1CCN(CCO)CC1)=CC2c1ccc(F)cc1 (stereo not drawn) [Lu 20-033, 3-(4'-Fluorophenyl)-1-(1-hydroxyethyl-4-piperidyl)-6-methoxy-1-indene, hydrobromide] | 18.3 µmol/kg | 6.2 µmol/kg | 
6.70 | CN1CCC(C2=CC(c3ccc(F)cc3)c3ccc(F)cc32)CC1 (stereo not drawn) [Lu 20-028, 6-Fluoro-3-(4'-fluorophenyl)-1-(1-methyl-4-piperidyl)-1-indene, hydrobromide] | 0.78 µmol/kg | 6.2 µmol/kg | 
6.62 | CN1CC=C(C2=CC(c3ccc(F)cc3)c3ccc(F)cc32)CC1 (stereo not drawn) [Lu 20-025, 6-Fluoro-3-(4'-fluorophenyl)-1-(1-methyl-1,2,3,6-tetrahydropyrid-4-yl)-1-indene, hydrobromide] | 7.6 µmol/kg | 5.3 µmol/kg | 
 | Cc1ccc2c(c1)C(O)(C1=CCN(CCO)CC1)CC2c1ccc(F)cc1 (stereo not drawn) [Lu 19-154, 3-(4'-Fluorophenyl)-1-hydroxy-1-(1-hydroxyethyl-1,2,3,6-tetrahydropyrid-4-yl)-6-methylindane] |  |  | ED50 (methylphenidate; [6]): 6.2 µmol/kg; pIC50 (5-HT, rat fundus strip; Table 2, hydroxyindane intermediates, rat fundus strip in vitro): 8.27
6.92 | O=C1NCCN1CCN1CCC(C2=CC(c3ccc(F)cc3)c3ccccc32)CC1 (stereo not drawn) [Lu 20-078, 3-(4'-Fluorophenyl)-1-(1-(2-imidazolidinon-1-ylethyl)-4-piperidyl)-1-indene, oxalate] | 16.5 µmol/kg |  | 
5.96 | CN1CCC(C2C=C(c3ccc(F)cc3)c3ccc(F)cc32)CC1 (stereo not drawn) [Lu 19-004, 6-Fluoro-3-(4'-fluorophenyl)-1-(1-methyl-4-piperidyl)-2-indene] | 12.2 µmol/kg | 64.2 µmol/kg | 
 | CN1CC=C(C2=CC(c3ccc(F)cc3)c3ccc(Cl)cc32)CC1 (stereo not drawn) [Lu 20-079, 6-Chloro-3-(4'-fluorophenyl)-1-(1-methyl-1,2,3,6-tetrahydropyrid-4-yl)-1-indene, hydrobromide] | 3 µmol/kg |  | 
 | OCCN1CCN(CCCN2c3ccccc3Sc3ccc(C(F)(F)F)cc32)CC1 [Fluphenazine, reference compound] |  |  | ED50 (methylphenidate; [2]): 0.07 µmol/kg; ED50 ([1]; Rattus norvegicus, 6 h): 0.55 µmol/kg
